According to patent EP2676954A1, “Heterocyclyl-substituted-phenyl derivatives as vasodilators” (Laboratorios del Dr. Esteve S.A., priority 2012, dated 2013):

Test system: Male Wistar rats
Experiment: Penile erection test (penile erection score) in conscious rats
Type: in vivo
Conditions: after local injection (animal studies)
Description: Male Wistar rats aged from 8 to 10 weeks old (250 - 320 g) were used in these studies. Animals were housed in groups of five, provided with food and water ad libitum and kept in controlled laboratory conditions with the temperature maintained at 22 ± 2 °C and light in 12 h cycles (on at 06:00 h and off at 18:00 h). Experiments were carried out in a soundproof and air-regulated experimental room. The number of rats ranged from 5 to 34 per group in each individual experiment.
Drugs used for treatments were: Compound 1, Compound 2, Compound 3 and Alprostadil.
Male Wistar rats received local injections (intrapenis injections) or topical administrations of test substances and penile erection was quantified (penile erection score) from 15 to 30 min after local drug injection and from 5 to 60 min after topical drug administration. The magnitude of penile erection is determined by penile erection score. The Baseline was determined based on vehicle injection. […]
For evaluating the penile erection after both types of administration, a qualitative score method was used, where 0 = no effect, 1 = slight effect, 2 = some effect without exposure of the penis, and 3 = clear effect with exposure of the penis. The reading times for the local injection were 15 and 30 minutes, and for the topical application were 5, 15, 30, and 60 minutes.
Data are expressed as Mean±SEM. […]

| SMILES | penile erection |
| --- | --- |
| Cc1nn(C)c(C)c1-c1cccc(CCN(C)C)c1 [Compound 2, Dimethyl-{2-[3-(1,3,5-trimethyl-1H-pyrazol-4-yl)-phenyl]-ethyl}-amine] | cause penile erection in the absence of sexual stimulation |
| Cc1nn(C)c(C)c1-c1ccc(O)c(CCN(C)C)c1 [Compound 1, 2-(2-(Dimethylamino)ethyl)-4-(1,3,5-trimethyl-1H-pyrazol-4-yl)phenol] | cause penile erection in the absence of sexual stimulation |
